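These data come from cells grown in 96-well plates and exposed to compound for 48 hours at five concentrations. TGI: concentration producing complete growth inhibition.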
Legend:
Assay in all cases: NCI-60 cell line screen, 48 h
[1] = test system: BT-549 breast
[2] = test system: OVCAR-5 ovarian
[3] = test system: MDA-N
[4] = test system: NCI/ADR-RES ovarian
[5] = test system: MCF7 breast
[6] = test system: NCI-H226 lung
[7] = test system: RXF 393 renal
[8] = test system: OVCAR-4 ovarian
[9] = test system: SK-MEL-2 melanoma
[10] = test system: MALME-3M melanoma
[11] = test system: TK-10 renal
[12] = test system: SK-OV-3 ovarian
[13] = test system: M14 melanoma
[14] = test system: OVCAR-8 ovarian
[15] = test system: OVCAR-3 ovarian
[16] = test system: ACHN renal
[17] = test system: A498 renal
[18] = test system: HCT-116 colon
[19] = test system: SK-MEL-5 melanoma
[20] = test system: HT29 colon
[21] = test system: UO-31 renal
[22] = test system: SF-539 CNS
[23] = test system: SNB-19 CNS
[24] = test system: 786-0 renal
[25] = test system: UACC-257 melanoma
[26] = test system: KM12 colon
[27] = test system: NCI-H460 lung
[28] = test system: MDA-MB-435
[29] = test system: HOP-92 NSCLC
[30] = test system: LOX IMVI melanoma
[31] = test system: SW-620 colon
[32] = test system: A549 NSCLC
[33] = test system: EKVX NSCLC
[34] = test system: SF-295 CNS
[35] = test system: SN12C renal
[36] = test system: MDA-MB-231 breast
[37] = test system: K-562 leukemia
[38] = test system: PC-3 prostate
[39] = test system: MOLT-4 leukemia
[40] = test system: SNB-75 CNS
[41] = test system: HCT-15 colon
[42] = test system: NCI-H23 lung
[43] = test system: SR leukemia
[44] = test system: CAKI-1 renal
[45] = test system: SK-MEL-28 melanoma
[46] = test system: CCRF-CEM leukemia
[47] = test system: HL-60(TB) leukemia
[48] = test system: HS 578T breast
[49] = test system: COLO 205 colon
[50] = test system: HCC-2998 colon
[51] = test system: HOP-62 NSCLC
[52] = test system: U251 CNS
[53] = test system: IGROV1 ovarian
[54] = test system: UACC-62 melanoma
[55] = test system: NCI-H522 lung
[56] = test system: DU-145 prostate
[57] = test system: RPMI-8226 leukemia

Nc1ccc2c(c1)Cc1ccccc1-2
TGI [1]: > 100 µM
TGI [2]: > 100 µM
TGI [3]: > 100 µM
TGI [4]: > 100 µM
TGI [5]: > 100 µM
TGI [6]: > 100 µM
TGI [7]: > 100 µM
TGI [8]: > 100 µM
TGI [9]: > 100 µM
TGI [10]: > 100 µM
TGI [11]: > 100 µM
TGI [12]: > 100 µM
TGI [13]: > 100 µM
TGI [14]: > 100 µM
TGI [15]: > 100 µM
TGI [16]: > 100 µM
TGI [17]: > 100 µM
TGI [18]: > 100 µM
TGI [19]: > 100 µM
TGI [20]: > 100 µM
TGI [21]: > 100 µM
TGI [22]: > 100 µM
TGI [23]: > 100 µM
TGI [24]: > 100 µM
TGI [25]: > 100 µM
TGI [26]: > 100 µM
TGI [27]: > 100 µM
TGI [28]: > 100 µM
TGI [29]: > 100 µM
TGI [30]: > 100 µM
TGI [31]: > 100 µM
TGI [32]: > 100 µM
TGI [33]: > 100 µM
TGI [34]: > 100 µM
TGI [35]: > 100 µM
TGI [36]: > 100 µM
TGI [37]: > 100 µM
TGI [38]: > 100 µM
TGI [39]: > 100 µM
TGI [40]: 94.3 µM
TGI [41]: > 100 µM
TGI [42]: > 100 µM
TGI [43]: > 100 µM
TGI [44]: > 100 µM
TGI [45]: > 100 µM
TGI [46]: > 100 µM
TGI [47]: > 100 µM
TGI [48]: > 100 µM
TGI [49]: > 100 µM
TGI [50]: > 100 µM
TGI [51]: > 100 µM
TGI [52]: > 100 µM
TGI [53]: > 100 µM
TGI [54]: > 100 µM

CCOc1ccc2nc3cc(N=Nc4ccc(N)nc4N)ccc3c(N)c2c1
TGI [1]: 31.4 µM
TGI [2]: 41.7 µM
TGI [3]: 4.99 µM
TGI [55]: 8.71 µM
TGI [4]: > 100 µM
TGI [5]: 12.2 µM
TGI [6]: 59.4 µM
TGI [7]: 10 µM
TGI [8]: > 78.6 µM
TGI [9]: 4.66 µM
TGI [10]: 21 µM
TGI [11]: 28.6 µM
TGI [12]: > 30.3 µM
TGI [13]: 51.5 µM
TGI [14]: 34.3 µM
TGI [16]: 33.9 µM
TGI [17]: 28.1 µM
TGI [18]: 7.8 µM
TGI [19]: 55.2 µM
TGI [56]: 26.8 µM
TGI [20]: 14 µM
TGI [21]: > 66.3 µM
TGI [22]: 4.11 µM
TGI [23]: 3.08 µM
TGI [25]: 57.1 µM
TGI [26]: > 100 µM
TGI [27]: 57.6 µM
TGI [28]: > 100 µM
TGI [29]: 40.1 µM
TGI [31]: > 34.9 µM
TGI [32]: > 47.9 µM
TGI [33]: 45.3 µM
TGI [34]: 63.4 µM
TGI [35]: 6.38 µM
TGI [36]: 2.92 µM
TGI [57]: 61.6 µM
TGI [37]: 1.67 µM
TGI [38]: 13.5 µM
TGI [39]: 4.83 µM
TGI [40]: 5.11 µM
TGI [41]: > 100 µM
TGI [42]: 21.9 µM
TGI [44]: > 100 µM
TGI [45]: 47.2 µM
TGI [47]: 10.1 µM
TGI [48]: 15.2 µM
TGI [50]: 4.35 µM
TGI [51]: > 100 µM
TGI [52]: 1.93 µM
TGI [53]: > 69.6 µM
TGI [54]: 33.7 µM

CN(C)c1ccc(/C=N/N=C2\C(=O)Nc3c(Cl)cc(Cl)cc32)cc1
TGI [1]: > 100 µM
TGI [2]: > 100 µM
TGI [3]: 33.8 µM
TGI [4]: 89 µM
TGI [5]: > 100 µM
TGI [6]: > 100 µM
TGI [7]: > 100 µM
TGI [8]: > 100 µM
TGI [9]: > 100 µM
TGI [10]: > 100 µM
TGI [11]: > 100 µM
TGI [12]: > 100 µM
TGI [13]: > 100 µM
TGI [14]: > 100 µM
TGI [15]: > 100 µM
TGI [16]: > 100 µM
TGI [17]: > 100 µM
TGI [18]: > 100 µM
TGI [19]: > 100 µM
TGI [20]: > 100 µM
TGI [21]: > 100 µM
TGI [22]: > 100 µM
TGI [23]: > 100 µM
TGI [24]: > 100 µM
TGI [25]: > 100 µM
TGI [26]: 36.4 µM
TGI [27]: > 100 µM
TGI [28]: > 100 µM
TGI [29]: > 100 µM
TGI [30]: > 100 µM
TGI [31]: > 100 µM
TGI [32]: > 100 µM
TGI [33]: > 100 µM
TGI [34]: > 100 µM
TGI [35]: > 100 µM
TGI [36]: > 100 µM
TGI [37]: > 100 µM
TGI [38]: > 100 µM
TGI [39]: > 100 µM
TGI [40]: 56.9 µM
TGI [41]: > 100 µM
TGI [42]: > 100 µM
TGI [43]: 33 µM
TGI [44]: > 100 µM
TGI [45]: > 100 µM
TGI [46]: > 100 µM
TGI [47]: > 100 µM
TGI [48]: > 100 µM
TGI [49]: > 100 µM
TGI [50]: > 100 µM
TGI [51]: > 100 µM
TGI [52]: > 100 µM
TGI [53]: > 100 µM
TGI [54]: > 100 µM

— PubChem BioAssay (NCI)
